Assay results reported in US9481669B2, “Pladienolide pyridine compounds and methods of use” (Eisai R&D Management Co., Ltd., priority 2014, dated 2016).
“Also recorded” adds a separate entry of the source. Read-outs that look alike come from different tables or passages of the source.

Tests used:
[1] = pH stability measurement (UPLC, 0.1 N HCl); type: physicochemical; conditions: 0.1 N HCl, pH 1, 24 hours
Procedure: Compounds were provided in 96-well plates and tested in triplicate. Four microliters of a 10 mM stock solution of compound in DMSO were distributed into each of three wells. The plate was stored at or below −20° C. until the day of the analysis. Methanol (HPLC grade) and 0.1 N HCl (EMD catalog HX0603A-6) were used for dilutions. Acetonitrile (HPLC grade), water (Milli-Q filtered), trifluoroacetic acid (spectral grade) and 0.2M phosphate buffer (Wako, catalog no. 163-14471) were used to prepare the mobile phase for the two analyses.
Stability data was obtained using a Waters Acquity UPLC equipped with a UV detector (Waters TUV) and single quadrupole MS detector (Waters SQD). The 96-well plate containing the compound(s) of interest was(were) removed from the freezer and allowed to warm to room temperature for one hour. The UPLC was primed, equilibrated and the system performance was verified by injecting a standard. After 1 hour, each of the three wells was diluted with 266 μL 0.1 N HCl to give pH=1. The plate was covered and placed on a shaker (Eppindorf Thermomixer R) for 45 minutes at 600 rpm. The plate was removed from the shaker, and the contents of each well were filtered through a filtration plate (Millipore catalog no. MSSLBPC50) by vacuum and injected into the UPLC. After approximately 24 hours, the contents of the wells were re-injected into the UPLC.
Stability in the various buffers was measured by comparing the peak area- % of the analyte in methanol versus the peak area- % of the analyte at the same retention time in 0.1 N HCl buffer in the 24 hr time point injection.

[2] = test system: WiDr cells (colon cancer cells, wildtype SF3B1); assay: Cell viability assay (CellTiter-Glo, 72 hr), WiDr; type: cell-based; conditions: Homo sapiens
Procedure: (§1) Cells (WiDr and Panc05.04 obtained from ATCC) were seeded in 96-well plates, with 2000 cells/100 μL/well, and incubated overnight. Spent media was removed, and fresh media containing 9 different concentrations of compound (100 μL/well) were added, with DMSO concentration from compound stock solution adjusted to be 0.1%. Each compound treatment was done in duplicate or triplicate at each concentration.
(§2) Another plate with cells seeded was dedicated as a time zero (Tz) plate, to which was added 0.1% DMSO in media (100 μL/well) followed by CellTiter-Glo® reagent (Promega Corporation, Madison, Wis.) (50 μL/well) for ATP measurement as a surrogate of cell viability. Average value from measurement of multiple wells of this plate is used as Tz.
(§3) Compound-treated plates were incubated for 72 hr at 37° C. Then, CellTiter-Glo® reagent (50 μL/well) was added and ATP was measured. Average value from measurement of the duplicate or triplicate compound-treated wells is used as Ti, and seeded plates with medium having 0.1% DMSO without compound is used as control growth (C).
(§4) Percentage growth inhibition/Percentage viability was calculated as: [(Ti−Tz)/(C−Tz)]×100 for concentrations for which Ti>/=Tz [(Ti−Tz)/Tz]×100 for concentrations for which Ti<Tz. *time zero (Tz), control growth (C), and test growth in the presence of compound (Ti) Percentage growth inhibition/Percentage viability are plotted versus compound concentration to determine Emax.
(§5) Growth inhibition of 50% (GI50) was calculated from [(Ti−Tz)/(C−Tz)]×100=50, which is the drug concentration resulting in a 50% reduction in the net increase of ATP in control growth (C) during the compound treatment.
(§6) The counter-screening of compounds in this viability assay with a “resistant” WiDr-R cell line may indicate whether these compounds have off-target effect(s).

[3] = test system: WiDr-R cells (colon cancer cells, SF3B1 R1074H mutation); assay: Cell viability assay (CellTiter-Glo, 72 hr), WiDr-R counter-screen; type: cell-based
Procedure: as §1, §2, §3, §4, §5, §6

[4] = Mouse pharmacokinetic (PK) study; type: in vivo, CD-1 mice; conditions: for AUC0-inf/D / Cmax/D / AUC(0-inf) / AUC(0-t) / half-life / clearance / Vd / Cmax / Tmax / bioavailability / BA (%) / AUC: CD-1 mice; for oral bioavailability and pharmacokinetic properties (in words): mouse model, IV and PO dosing; for AUC(0-inf) / AUC(0-t) / half-life / clearance / Vd / Cmax / Tmax / bioavailability / AUC: mouse, plasma; for Vd: read-out: Vss; for AUC: read-out: AUCfinite
Procedure: (§7) Compound 2 was dosed at 5 mg/kg IV (intravenous) or 10 mg/kg PO (oral administration) to CD-1 mice. Following administration, blood samples were collected at pre-determined time points from five mice via serial bleeding of the tail vein. Blood was collected at 0.083 (0.167 PO only), 0.5, 1, 2, 4, 6, 8, and 24 hours post administration. The blood samples were centrifuged at 5000 RPM for 5 minutes to collect plasma within 30 minutes of blood collection. After extraction, samples were assayed using LCMS. PK parameters were calculated using non-compartmental analysis in WinNonlin v6.3.
as §7, with “Compound 1” for “Compound 2”, “IV” for “IV (intravenous)”, “or 12” for “or 10”, “PO” for “PO (oral administration)”, “bleeding from” for “bleeding of”, “hours post-dose.” for “hours post administration.”
Compound 3 was dosed at 5.964 mg/kg IV or 13.307 mg/kg PO to CD-1 mice. Following administration, blood samples were collected at pre-determined time points from five mice via serial bleeding from the tail vein. Blood was collected at 0.083 (0.167 PO only), 0.5, 1, 2, 4, 6, 8, and 24 hours post-dose. The blood samples were centrifuged at 5000 RPM for 5 minutes to collect plasma within 30 minutes of blood collection. After extraction, samples were assayed using LCMS. PK parameters were calculated using non-compartmental analysis in WinNonlin v6.3.
Compound 4 was dosed at 5 mg/kg IV or 10 mg/kg PO to CD-1 mice. Following administration, blood samples were collected at pre-determined time-points from five mice via serial bleeding from the tail vein. Blood was collected at 0.083 (0.167 PO only), 0.5, 1, 2, 4, 6, 8, and 24 hours post-dose. The blood samples will be centrifuged at 5000 RPM for 5 minutes to collect plasma within 30 minutes of blood collection. After extraction, samples were assayed using LCMS. PK parameters were calculated using non-compartmental analysis in WinNonlin v6.3.

With `C/C(=C\C=C\[C@@H](C)c1ccccn1)[C@H]1OC(=O)C[C@H](O)CC[C@@](C)(O)[C@@H](OC(=O)N2CCN(C3CCCCCC3)CC2)/C=C/[C@@H]1C` [Compound 1, (2S,3S,6S,7R,10R,E)-7,10-dihydroxy-3,7-dimethyl-12-oxo-2-((R,2E,4E)-6-(pyridin-2-yl)hepta-2,4-dien-2-yl)oxacyclododec-4-en-6-yl 4-cycloheptylpiperazine-1-carboxylate] the “% parent remaining (pH = 1, 24 hours)” value [1] was 91%, the GI50 [2] was 15.8 nM and the GI50 [3] was > 1000 nM. For the same compound, the AUC0-inf/D ([4]; 5 mg/kg IV (Table 5)) was 934.15 ng · h/mL/D, the AUC0-inf/D ([4]; 12 mg/kg PO) was 487.06 ng · h/mL/D and the Cmax/D ([4]; 12 mg/kg PO) was 141.47 ng/mL/D. The “oral bioavailability and pharmacokinetic properties (in words)” value [4] was “showed oral bioavailability and favorable pharmacokinetic properties; also recorded: possess oral bioavailability and favorable pharmacokinetic properties”, the AUC(0-inf) ([4]; 5 mg/kg IV (Table 5)) was 4670 ng·h/mL and the AUC(0-t) ([4]; 5 mg/kg IV (Table 5)) was 4450 ng·h/mL. It also gave a half-life ([4]; 5 mg/kg IV (Table 5)) of 152 min, a clearance ([4]; 5 mg/kg IV (Table 5), read-out: CL (converted)) of 17.8 mL/min/kg and a Vd ([4]; 5 mg/kg IV (Table 5)) of 2.1 L/kg. For the same compound, the AUC(0-inf) ([4]; 12 mg/kg PO) was 6230 ng·h/mL, the AUC(0-t) ([4]; 12 mg/kg PO) was 6210 ng·h/mL and the Cmax ([4]; 12 mg/kg PO) was 1810 ng/mL. For the same compound, the Tmax ([4]; 12 mg/kg PO) was 0.5 h, the bioavailability ([4]; 12 mg/kg PO) was 52.1% and the half-life ([4]; 12 mg/kg PO) was 180 min.
With `C/C(=C\C=C\[C@@H](C)c1ccccn1)[C@H]1OC(=O)C[C@H](O)CC[C@@](C)(O)[C@@H](OC(=O)N2CCN(C)CC2)/C=C/[C@@H]1C` [Compound 2, (2S,3 S,6S,7R,10R,E)-7,10-dihydroxy-3,7-dimethyl-12-oxo-2-((R,2E,4E)-6-(pyridin-2-yl)hepta-2,4-dien-2-yl)oxacyclododec-4-en-6-yl 4-methylpiperazine-1-carboxylate] the “% parent remaining (pH = 1, 24 hours)” value [1] was 96%, the GI50 [2] was 31.8 nM and the GI50 [3] was > 1000 nM. The AUC0-inf/D ([4]; 5 mg/kg IV) was 632.71 ng · h/mL/D, the AUC0-inf/D ([4]; 10 mg/kg PO) was 254.49 ng · h/mL/D and the Cmax/D ([4]; 10 mg/kg PO) was 84.07 ng/mL/D. For the same compound, the “oral bioavailability and pharmacokinetic properties (in words)” value [4] was “shows oral bioavailability and favorable pharmacokinetic properties; also recorded: possess oral bioavailability and favorable pharmacokinetic properties”, the AUC(0-inf) ([4]; 5 mg/kg IV) was 3160 ng·h/mL and the AUC(0-t) ([4]; 5 mg/kg IV) was 3160 ng·h/mL. The half-life ([4]; 5 mg/kg IV) was 233 min, the clearance ([4]; 5 mg/kg IV, read-out: CL (converted)) was 26.3 mL/min/kg and the Vd ([4]; 5 mg/kg IV) was 2.37 L/kg. It also gave an AUC(0-inf) ([4]; 10 mg/kg PO) of 2540 ng·h/mL, an AUC(0-t) ([4]; 10 mg/kg PO) of 2510 ng·h/mL and a Cmax ([4]; 10 mg/kg PO) of 841 ng/mL. The Tmax ([4]; 10 mg/kg PO) was 1 h, the bioavailability ([4]; 10 mg/kg PO) was 40.2% and the half-life ([4]; 10 mg/kg PO) was 242 min.
With `C/C(=C\C=C\[C@@H](C)c1ccccn1)[C@H]1OC(=O)C[C@H](O)CC[C@@](C)(O)[C@@H](OC(=O)N2CCC(N3CCCCCC3)CC2)/C=C/[C@@H]1C` [Compound 3, (2S,3S,6S,7R,10R,E)-7,10-dihydroxy-3,7-dimethyl-12-oxo-2-((R,2E,4E)-6-(pyridin-2-yl)hepta-2,4-dien-2-yl)oxacyclododec-4-en-6-yl 4-(azepan-1-yl)piperidine-1-carboxylate] the “% parent remaining (pH = 1, 24 hours)” value [1] was 98%, the GI50 [2] was 26.3 nM and the GI50 [3] was > 1000 nM. For the same compound, the AUC0-inf/D ([4]; 5.964 mg/kg IV) was 1.047 μg/mL * hr/D, the AUC0-inf/D ([4]; 13.307 mg/kg PO) was 0.615 μg/mL * hr/D and the “BA (%)” value ([4]; 13.307 mg/kg PO) was 58.758%. For the same compound, the “oral bioavailability and pharmacokinetic properties (in words)” value [4] was “showed oral bioavailability and favorable pharmacokinetic properties; also recorded: possess oral bioavailability and favorable pharmacokinetic properties”, the AUC(0-inf) ([4]; 5.964 mg/kg IV) was 6240 ng·h/mL and the half-life ([4]; 5.964 mg/kg IV) was 220 min. The AUC ([4]; 5.964 mg/kg IV) was 6210 ng·h/mL, the clearance ([4]; 5.964 mg/kg IV, read-out: CLtot (converted)) was 15.9 mL/min/kg and the Vd ([4]; 5.964 mg/kg IV) was 2.98 L/kg. For the same compound, the AUC(0-inf) ([4]; 13.307 mg/kg PO) was 8190 ng·h/mL, the Cmax ([4]; 13.307 mg/kg PO) was 1570 ng/mL and the Tmax ([4]; 13.307 mg/kg PO) was 2 h. It also gave a half-life ([4]; 13.307 mg/kg PO) of 199 min and an AUC ([4]; 13.307 mg/kg PO) of 8140 ng·h/mL.
For `C/C(=C\C=C\[C@@H](C)c1ccccn1)[C@H]1OC(=O)C[C@H](O)CC[C@@](C)(O)[C@@H](OC(=O)N2CCC(N3CCCCC3)CC2)/C=C/[C@@H]1C` [Compound 4, (2S,3 S,6S,7R,10R,E)-7,10-dihydroxy-3,7-dimethyl-12-oxo-2-((R,2E,4E)-6-(pyridin-2-yl)hepta-2,4-dien-2-yl)oxacyclododec-4-en-6-yl[1,4′-bipiperidine]-1′-carboxylate], the “% parent remaining (pH = 1, 24 hours)” value [1] was 99%, the GI50 [2] was 13 nM and the GI50 [3] was > 1000 nM. The AUC0-inf/D ([4]; 5 mg/kg IV (Table 7)) was 1.325 ug/mL * hr/D, the AUC0-inf/D ([4]; 10 mg/kg PO (Table 7)) was 0.795 ug/mL * hr/D and the “BA (%)” value ([4]; 10 mg/kg PO (Table 7)) was 60.024%. The “oral bioavailability and pharmacokinetic properties (in words)” value [4] was “showed oral bioavailability and favorable pharmacokinetic properties; also recorded: possess oral bioavailability and favorable pharmacokinetic properties”, the AUC(0-inf) ([4]; 5 mg/kg IV (Table 7)) was 6620 ng·h/mL and the AUC(0-t) ([4]; 5 mg/kg IV (Table 7)) was 6610 ng·h/mL. For the same compound, the half-life ([4]; 5 mg/kg IV (Table 7)) was 181 min, the clearance ([4]; 5 mg/kg IV (Table 7), read-out: CLtot (converted)) was 12.6 mL/min/kg and the Vd ([4]; 5 mg/kg IV (Table 7)) was 1.89 L/kg. For the same compound, the AUC(0-inf) ([4]; 10 mg/kg PO (Table 7)) was 7950 ng·h/mL, the AUC(0-t) ([4]; 10 mg/kg PO (Table 7)) was 7910 ng·h/mL and the Cmax ([4]; 10 mg/kg PO (Table 7)) was 1250 ng/mL. It also gave a Tmax ([4]; 10 mg/kg PO (Table 7)) of 2 h and a half-life ([4]; 10 mg/kg PO (Table 7)) of 178 min.
